According to ChEMBL document CHEMBL1201862, “PubChem BioAssay data set” (2004):
Activity calls are given as the source filed them.

Tests used:
[1] = biological target: Nucleotide-binding oligomerization domain-containing protein 2 (Homo sapiens, UniProt Q9HC29); test: PubChem AID 2334; format: functional
Streptokinase A = biological target: T1, Streptokinase A (Streptococcus pyogenes serotype M1, UniProt P10520); test: viability-normalized secreted streptokinase activity reduction – plasminogen activation absorbance, OD405, dose response (AID 1914); format: functional, Streptococcus pyogenes M1 GAS;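 further: secreted streptokinase activity via plasminogen activation per viability signal from cell pellet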
T1 sequence (P10520 whole entry): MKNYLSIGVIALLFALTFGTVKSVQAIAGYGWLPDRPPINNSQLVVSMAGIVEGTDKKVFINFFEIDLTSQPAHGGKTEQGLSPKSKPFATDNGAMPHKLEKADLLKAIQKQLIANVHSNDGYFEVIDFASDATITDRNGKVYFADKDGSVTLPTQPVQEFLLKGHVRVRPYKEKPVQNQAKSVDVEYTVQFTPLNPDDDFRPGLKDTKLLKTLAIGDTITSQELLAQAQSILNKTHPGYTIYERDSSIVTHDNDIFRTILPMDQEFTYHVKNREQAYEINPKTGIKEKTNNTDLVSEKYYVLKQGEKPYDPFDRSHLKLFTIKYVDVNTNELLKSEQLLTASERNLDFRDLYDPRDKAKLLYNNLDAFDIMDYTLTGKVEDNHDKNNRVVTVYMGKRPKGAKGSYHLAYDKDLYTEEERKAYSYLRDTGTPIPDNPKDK

Streptococcus = test: GAS UMAA2166 growth inhibition – luminescence, BacTiterGlo, counter-screen for streptokinase expression inhibitor project, dose response (AID 1915); format: functional, organism-based;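 further: potency for reduction of bacterial viability or growth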
[2] = tested on: Streptococcus sp. 'group A'; test: Streptococcus pyogenes SK(-)GAS viability under kanamycin – luminescence, BacTiterGlo, confirmation, counter-screen for streptokinase expression inhibitor project, dose response (AID 1900); format: functional, organism-based; conditions: read-out: EC50
[3] = biological target: Nucleotide-binding oligomerization domain-containing protein 1 (Homo sapiens, UniProt Q9Y239); test: blockers of NOD1 pathway activity – revised, SAR follow-up (AID 2333); format: functional
H9c2 = test: cells; format: functional, cell-based; conditions: Rattus norvegicus, H9c2, Myocardium;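 further: confirmatory concentration-response retest of ultra-high-throughput screening hits for modulation of myocardial damage; cell death induced by hydrogen peroxide oxidative stress; compound pretreatment for 60 min then peroxide exposure for 2 h; potency is for protecting the cells against peroxide damage rather than for killing them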
HEK293 [4] = test: cells; conditions: Homo sapiens
Tumor necrosis factor = Tumor necrosis factor (Homo sapiens, UniProt P01375); test: analog potency on TNFa NF-kB signaling – cell-based, revised, SAR follow-up (AID 2337); format: functional
[5] = Counterscreen for activators of the function of SWI/SNF related, matrix associated, actin dependent regulator of chromatin, subfamily a, member 2 (SMARCA2, BRM): Luminescence-based cell-based high throughput dose response assay to identify non-selective compounds using the VP16 reporter assay.; format: functional
Mu-type opioid receptor = Mu-type opioid receptor (Homo sapiens, UniProt P35372); format: functional, cell-based;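 further: U2OS cells with beta-arrestin recruitment to OPRM1 by beta-gal complementation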
[6] = biological target: Dual specificity tyrosine-phosphorylation-regulated kinase 1A (Rattus norvegicus, UniProt Q63470); format: biochemical, Homo sapiens
[7] = biological target: T2, Oxysterols receptor LXR-beta (Homo sapiens, UniProt P55055); format: functional, cell-based;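 further: agonist activity at LXR measured by a cell-based luminescence readout across a dose range, run as a counterscreen for daf-12 agonists; HEK293 cells with Gal4-LXR fusion and GAL4-driven luciferase reporter; potency for activation of Gal4-LXR reporter so compounds are agonists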
T2 sequence (P55055 whole entry): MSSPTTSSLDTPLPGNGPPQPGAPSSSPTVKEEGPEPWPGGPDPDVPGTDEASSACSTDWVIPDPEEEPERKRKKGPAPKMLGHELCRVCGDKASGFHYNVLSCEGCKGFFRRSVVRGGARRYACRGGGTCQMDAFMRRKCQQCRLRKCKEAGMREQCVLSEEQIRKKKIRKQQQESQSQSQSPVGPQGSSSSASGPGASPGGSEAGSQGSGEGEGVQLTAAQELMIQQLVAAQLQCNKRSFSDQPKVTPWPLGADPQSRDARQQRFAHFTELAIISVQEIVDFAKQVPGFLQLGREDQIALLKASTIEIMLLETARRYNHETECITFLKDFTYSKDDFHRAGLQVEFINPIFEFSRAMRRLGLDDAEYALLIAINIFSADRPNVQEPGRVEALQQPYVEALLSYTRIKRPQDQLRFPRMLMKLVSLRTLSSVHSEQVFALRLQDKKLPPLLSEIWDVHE

[8] = biological target: 5-hydroxytryptamine receptor 2A (Mus musculus, UniProt P35363); format: functional, cell-based;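 further: CHO-K1 cells with tagged receptor and beta-arrestin; agonist potency measured as compound-induced activation of the receptor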
HEK293 [9] = test: cells; format: functional, cell-based; conditions: Homo sapiens
[10] = biological target: SWI/SNF-related matrix-associated actin-dependent regulator of chromatin subfamily A member 2 (Homo sapiens, UniProt P51531); test: Luminescence-based cell-based high throughput dose response assay to identify activators of the function of SWI/SNF related, matrix associated, actin dependent regulator of chromatin, subfamily a, member 2 (SMARCA2, BRM).; format: functional
[11] = biological target: Cyclin-dependent kinase 5/CDK5 activator 1 (Homo sapiens, UniProt Q00535); test: blockade of human CDK5 activity – biochemical, cherry-picked samples, set 2, dose response (AID 504545)
[12] = biological target: T3, Nuclear receptor subfamily 0 group B member 1 (Homo sapiens, UniProt P51843); test: Luminescence-based cell-based high throughput dose response assay for inhibitors of the orphan nuclear receptor subfamily 0, group B, member 1 (DAX1; NR0B1). [Related pubchem assays (depositor defined):AID504766, AID504790]; format: functional
T3 sequence (P51843 whole entry): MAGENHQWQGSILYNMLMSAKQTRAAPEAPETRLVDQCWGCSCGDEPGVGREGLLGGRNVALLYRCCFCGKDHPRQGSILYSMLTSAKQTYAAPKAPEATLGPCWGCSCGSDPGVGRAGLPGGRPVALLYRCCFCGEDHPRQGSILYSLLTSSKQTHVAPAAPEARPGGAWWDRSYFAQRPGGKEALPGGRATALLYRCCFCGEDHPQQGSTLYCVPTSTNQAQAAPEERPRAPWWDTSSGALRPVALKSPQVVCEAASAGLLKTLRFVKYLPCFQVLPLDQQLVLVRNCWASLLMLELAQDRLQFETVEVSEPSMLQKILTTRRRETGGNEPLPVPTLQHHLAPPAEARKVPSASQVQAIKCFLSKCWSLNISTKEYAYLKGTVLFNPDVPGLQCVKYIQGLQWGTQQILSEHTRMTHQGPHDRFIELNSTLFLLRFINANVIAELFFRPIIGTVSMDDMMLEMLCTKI

[13] = cytotoxicity toward HT-29 cells – cell-based, CellTiter-Glo luminescence, IC50, dose response (AID 1117330); format: functional
[14] = cytotoxicity toward HCT116 cells – cell-based, CellTiter-Glo luminescence, IC50, dose response (AID 1117332); format: functional; conditions: HCT-116
[15] = HCT116 cell viability decrease, GSK3B pretreatment – CellTiter-Glo, IC50, dose response (AID 1117339); format: functional; conditions: HCT-116
[16] = biological target: Aryl hydrocarbon receptor (Homo sapiens, UniProt P35869); conditions: Potency;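 further: confirmatory quantitative high-throughput screen measuring activation of the AhR signaling pathway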
[17] = biological target: NACHT, LRR and PYD domains-containing protein 3 (Homo sapiens, UniProt Q96P20); test: NALP3 inhibitors in yeast, dose response, luminescent (AID 488799); format: functional
[18] = CellTiter-Glo luminescence survival assay, SW480 colon tumor line, concentration-response curve, half-maximal inhibitory concentration (AID 1117338); format: functional
INS1 = test: INS-1E survival protection against cytokine death – cell-based, luminescence, retest, dose response (AID 449756); format: functional; conditions: Rattus norvegicus;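 further: cell death triggered by IL-1 beta plus TNF-alpha plus IFN-gamma mixture; protective hits raise ATP signal compared with cytokine alone wells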
[19] = cytotoxicity toward Colo320 cells – cell-based, CellTiter-Glo luminescence, IC50, dose response (AID 1117334); format: functional; conditions: COLO 320
[20] = SNU-C1 cell viability reduction, dose response, CellTiter-Glo luminescence (AID 1117323); format: functional, cell-based
[21] = RKO cell viability reduction, dose response, CellTiter-Glo luminescence (AID 1117322); format: functional
[22] = Reduced DLD-1 viability, concentration-response, CellTiter-Glo luminescence (AID 1117352); format: functional
[23] = biological target: Cystic fibrosis transmembrane conductance regulator/Golgi-associated PDZ and coiled-coil motif-containing protein (Homo sapiens, UniProt P13569+Q9HD26); test: potency against CAL PDZ-peptide interaction – biochemical, fluorescence polarization, Cerulean-tagged CAL PDZ, cherry-picks, dose response (AID 504773)
Sequence of Cystic fibrosis transmembrane conductance regulator/Golgi-associated PDZ and coiled-coil motif-containing protein (P13569 whole entry, other chains not shown): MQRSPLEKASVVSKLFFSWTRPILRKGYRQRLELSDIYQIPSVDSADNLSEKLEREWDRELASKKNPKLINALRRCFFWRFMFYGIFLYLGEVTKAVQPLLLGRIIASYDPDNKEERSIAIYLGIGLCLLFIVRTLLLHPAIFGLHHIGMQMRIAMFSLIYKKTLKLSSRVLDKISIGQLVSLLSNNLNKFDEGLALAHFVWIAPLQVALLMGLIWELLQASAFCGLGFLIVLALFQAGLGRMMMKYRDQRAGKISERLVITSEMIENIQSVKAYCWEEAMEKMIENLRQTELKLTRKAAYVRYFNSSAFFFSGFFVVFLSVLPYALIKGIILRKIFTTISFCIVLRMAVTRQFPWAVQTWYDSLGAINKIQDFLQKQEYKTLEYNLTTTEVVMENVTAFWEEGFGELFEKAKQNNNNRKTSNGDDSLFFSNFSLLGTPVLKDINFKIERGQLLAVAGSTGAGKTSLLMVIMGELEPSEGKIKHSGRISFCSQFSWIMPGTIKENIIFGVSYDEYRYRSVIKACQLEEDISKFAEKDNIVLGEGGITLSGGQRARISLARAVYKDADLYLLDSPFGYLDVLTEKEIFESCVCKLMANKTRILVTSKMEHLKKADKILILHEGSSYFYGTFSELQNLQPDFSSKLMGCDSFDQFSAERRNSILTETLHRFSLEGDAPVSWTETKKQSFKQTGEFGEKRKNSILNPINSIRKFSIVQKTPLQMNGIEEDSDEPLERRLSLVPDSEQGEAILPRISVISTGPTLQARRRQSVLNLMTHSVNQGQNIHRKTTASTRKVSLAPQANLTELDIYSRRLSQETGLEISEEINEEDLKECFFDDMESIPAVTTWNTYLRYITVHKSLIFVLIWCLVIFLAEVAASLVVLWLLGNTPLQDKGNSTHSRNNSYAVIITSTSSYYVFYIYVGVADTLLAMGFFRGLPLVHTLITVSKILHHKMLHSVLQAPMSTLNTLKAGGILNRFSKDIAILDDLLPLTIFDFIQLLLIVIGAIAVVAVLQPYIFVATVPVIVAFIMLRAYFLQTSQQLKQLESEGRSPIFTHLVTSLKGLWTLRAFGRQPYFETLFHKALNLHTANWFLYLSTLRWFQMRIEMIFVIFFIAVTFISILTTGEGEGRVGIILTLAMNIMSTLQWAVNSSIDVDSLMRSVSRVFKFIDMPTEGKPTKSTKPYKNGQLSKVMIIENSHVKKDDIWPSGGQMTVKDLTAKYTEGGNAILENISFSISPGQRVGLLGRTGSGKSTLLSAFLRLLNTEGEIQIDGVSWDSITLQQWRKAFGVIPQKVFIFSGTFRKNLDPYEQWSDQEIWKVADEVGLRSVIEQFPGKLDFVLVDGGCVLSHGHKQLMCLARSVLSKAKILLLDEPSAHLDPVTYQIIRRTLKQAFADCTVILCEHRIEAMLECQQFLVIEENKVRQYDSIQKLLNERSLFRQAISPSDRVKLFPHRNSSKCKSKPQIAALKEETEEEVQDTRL

Sequence of SWI/SNF-related matrix-associated actin-dependent regulator of chromatin subfamily A member 2 (P51531 whole entry): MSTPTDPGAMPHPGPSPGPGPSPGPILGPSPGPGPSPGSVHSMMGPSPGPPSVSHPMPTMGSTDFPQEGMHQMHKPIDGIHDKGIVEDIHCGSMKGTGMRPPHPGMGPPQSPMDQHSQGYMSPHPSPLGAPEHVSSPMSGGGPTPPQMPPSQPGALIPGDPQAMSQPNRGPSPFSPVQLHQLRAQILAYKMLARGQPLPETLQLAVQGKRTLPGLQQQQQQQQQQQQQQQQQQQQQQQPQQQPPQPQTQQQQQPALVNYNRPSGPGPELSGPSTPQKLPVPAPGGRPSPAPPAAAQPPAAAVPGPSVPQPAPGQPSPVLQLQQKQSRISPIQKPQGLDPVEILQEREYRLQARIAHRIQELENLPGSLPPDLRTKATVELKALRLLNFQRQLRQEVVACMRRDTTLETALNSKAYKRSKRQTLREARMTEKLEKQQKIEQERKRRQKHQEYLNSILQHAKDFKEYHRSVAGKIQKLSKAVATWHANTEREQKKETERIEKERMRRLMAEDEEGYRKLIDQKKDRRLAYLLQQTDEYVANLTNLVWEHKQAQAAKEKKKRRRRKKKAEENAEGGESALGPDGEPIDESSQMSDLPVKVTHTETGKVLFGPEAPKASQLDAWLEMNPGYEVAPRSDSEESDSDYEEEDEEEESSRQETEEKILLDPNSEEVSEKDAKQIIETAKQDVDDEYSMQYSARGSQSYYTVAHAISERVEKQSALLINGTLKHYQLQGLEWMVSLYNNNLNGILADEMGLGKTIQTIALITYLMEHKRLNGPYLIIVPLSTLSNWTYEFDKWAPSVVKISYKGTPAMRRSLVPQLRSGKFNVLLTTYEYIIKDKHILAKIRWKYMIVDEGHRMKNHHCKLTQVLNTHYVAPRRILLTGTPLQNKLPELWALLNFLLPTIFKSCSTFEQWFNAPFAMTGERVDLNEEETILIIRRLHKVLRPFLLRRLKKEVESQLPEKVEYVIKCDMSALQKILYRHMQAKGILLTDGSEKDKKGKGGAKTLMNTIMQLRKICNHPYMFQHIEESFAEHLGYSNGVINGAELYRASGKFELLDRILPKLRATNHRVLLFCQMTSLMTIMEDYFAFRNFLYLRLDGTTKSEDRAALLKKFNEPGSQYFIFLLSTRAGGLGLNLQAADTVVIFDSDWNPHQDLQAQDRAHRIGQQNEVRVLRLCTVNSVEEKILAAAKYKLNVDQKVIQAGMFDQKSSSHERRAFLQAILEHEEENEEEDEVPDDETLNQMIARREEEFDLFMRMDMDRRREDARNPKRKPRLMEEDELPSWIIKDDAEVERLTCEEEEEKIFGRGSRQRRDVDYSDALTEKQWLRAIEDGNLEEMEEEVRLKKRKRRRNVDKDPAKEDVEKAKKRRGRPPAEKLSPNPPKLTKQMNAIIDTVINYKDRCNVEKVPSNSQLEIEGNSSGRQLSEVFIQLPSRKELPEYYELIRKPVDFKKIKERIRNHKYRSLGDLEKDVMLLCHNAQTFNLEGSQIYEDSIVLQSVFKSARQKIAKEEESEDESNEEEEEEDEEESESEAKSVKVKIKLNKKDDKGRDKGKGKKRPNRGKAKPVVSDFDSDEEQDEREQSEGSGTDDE
Sequence of Cyclin-dependent kinase 5/CDK5 activator 1 (Q00535 whole entry): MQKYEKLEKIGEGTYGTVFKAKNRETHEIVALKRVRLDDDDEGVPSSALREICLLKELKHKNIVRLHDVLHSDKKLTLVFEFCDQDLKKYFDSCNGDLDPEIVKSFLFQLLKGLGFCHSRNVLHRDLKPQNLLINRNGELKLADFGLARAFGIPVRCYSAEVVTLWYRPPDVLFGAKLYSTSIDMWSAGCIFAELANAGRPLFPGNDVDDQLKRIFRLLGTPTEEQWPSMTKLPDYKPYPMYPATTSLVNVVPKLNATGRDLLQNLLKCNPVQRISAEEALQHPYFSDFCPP
Sequence of Cyclin-dependent kinase 5/CDK5 activator 1 (Q15078 whole entry, further chain): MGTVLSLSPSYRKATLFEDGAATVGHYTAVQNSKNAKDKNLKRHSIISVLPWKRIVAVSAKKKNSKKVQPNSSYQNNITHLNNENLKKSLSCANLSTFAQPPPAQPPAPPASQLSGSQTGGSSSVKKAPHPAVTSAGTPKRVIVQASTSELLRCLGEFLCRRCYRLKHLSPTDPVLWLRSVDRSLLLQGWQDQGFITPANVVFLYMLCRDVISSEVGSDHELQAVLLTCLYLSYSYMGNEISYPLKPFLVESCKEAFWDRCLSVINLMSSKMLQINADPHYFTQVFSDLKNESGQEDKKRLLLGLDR
Sequence of Nucleotide-binding oligomerization domain-containing protein 1 (Q9Y239 whole entry, the tested form may be a part): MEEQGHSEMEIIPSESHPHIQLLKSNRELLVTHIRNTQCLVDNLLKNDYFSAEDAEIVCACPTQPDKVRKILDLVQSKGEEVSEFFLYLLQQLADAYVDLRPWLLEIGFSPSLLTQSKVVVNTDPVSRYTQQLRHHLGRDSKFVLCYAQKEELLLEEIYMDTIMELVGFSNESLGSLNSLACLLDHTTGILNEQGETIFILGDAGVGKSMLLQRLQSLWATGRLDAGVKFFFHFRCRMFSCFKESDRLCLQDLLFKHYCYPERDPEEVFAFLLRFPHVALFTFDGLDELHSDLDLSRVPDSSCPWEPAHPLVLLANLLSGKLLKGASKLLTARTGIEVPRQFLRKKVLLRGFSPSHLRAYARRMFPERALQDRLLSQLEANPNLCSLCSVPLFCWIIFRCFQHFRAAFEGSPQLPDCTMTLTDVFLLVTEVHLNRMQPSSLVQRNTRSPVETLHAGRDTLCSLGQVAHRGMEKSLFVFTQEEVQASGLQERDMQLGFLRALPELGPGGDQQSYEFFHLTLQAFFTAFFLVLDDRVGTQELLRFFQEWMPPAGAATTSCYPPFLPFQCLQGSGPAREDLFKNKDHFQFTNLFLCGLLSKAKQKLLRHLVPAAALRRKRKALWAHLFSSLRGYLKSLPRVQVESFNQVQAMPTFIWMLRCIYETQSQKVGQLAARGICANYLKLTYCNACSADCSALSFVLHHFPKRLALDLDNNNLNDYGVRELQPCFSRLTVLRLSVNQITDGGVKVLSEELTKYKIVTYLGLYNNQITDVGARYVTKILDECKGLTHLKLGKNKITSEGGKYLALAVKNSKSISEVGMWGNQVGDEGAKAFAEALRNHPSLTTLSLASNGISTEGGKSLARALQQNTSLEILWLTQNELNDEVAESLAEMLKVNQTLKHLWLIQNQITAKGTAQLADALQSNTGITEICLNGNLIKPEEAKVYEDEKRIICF
Sequence of 5-hydroxytryptamine receptor 2A (P35363 whole entry): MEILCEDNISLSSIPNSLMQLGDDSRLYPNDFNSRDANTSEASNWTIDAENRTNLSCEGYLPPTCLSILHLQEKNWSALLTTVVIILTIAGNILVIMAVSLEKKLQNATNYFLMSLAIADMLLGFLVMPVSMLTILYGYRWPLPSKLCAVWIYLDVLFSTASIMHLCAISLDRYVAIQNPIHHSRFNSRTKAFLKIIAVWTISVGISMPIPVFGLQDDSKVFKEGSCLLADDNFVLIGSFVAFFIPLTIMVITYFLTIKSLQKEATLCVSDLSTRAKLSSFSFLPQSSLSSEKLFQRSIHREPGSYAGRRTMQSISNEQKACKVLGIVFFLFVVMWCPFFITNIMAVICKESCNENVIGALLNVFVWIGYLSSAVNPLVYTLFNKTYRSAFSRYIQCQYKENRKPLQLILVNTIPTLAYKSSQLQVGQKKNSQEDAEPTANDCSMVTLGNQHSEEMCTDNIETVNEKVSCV

Structure (SMILES): O=C(Nc1nc2ccccc2n1Cc1ccccc1)c1ccco1
- IC50 [1]: > 20 µM (inactive)
- EC50 (Streptokinase A): > 150 µM (not active)
- EC50 (Streptococcus): > 150 µM (not active)
- EC50 [2]: 3.48 µM (active)
- IC50 [3]: > 20 µM (inactive)
- IC50 (H9c2): > 79 µM (inactive)
- IC50 (HEK293 [4]): > 20 µM (inactive)
- IC50 (Tumor necrosis factor): > 20 µM (inactive)

Structure (SMILES): N#Cc1c(Br)n(C2OC(CO)C(O)C2O)c2ncnc(N)c12 (centres undefined)
- EC50 [5]: > 91.1 µM (inactive)
- EC50 (Mu-type opioid receptor): 92.4 µM (inactive)
- AC50 [6]: 2.09 µM (active)
- EC50 [7]: > 67.5 µM (inactive)
- EC50 [8]: 0.482 µM (active)
- IC50 (HEK293 [9]): > 67.5 µM (inactive)
- EC50 [10]: > 91.1 µM (inactive)
- AC50 [11]: 184 µM (active)
- IC50 [12]: > 67.5 µM (inactive)

Structure (SMILES): O=C(Nc1ccc(Cl)cc1)Nc1ccc(Cl)c(Cl)c1 [TRICLOCARBAN]
- IC50 [13]: 0.383 µM (active)
- IC50 [14]: 0.228 µM (active)
- IC50 [15]: 0.362 µM (active)
- AC50 [16]: 14.1 µM (inconclusive)
- IC50 [17]: 1.49 µM (active)
- IC50 [18]: 0.897 µM (active)
- AC50 (INS1): 3.69 µM (active)
- IC50 [19]: 0.362 µM (active)
- IC50 [20]: 0.335 µM (active)
- IC50 [21]: 0.288 µM (active)
- IC50 [22]: 0.323 µM (active)

Structure (SMILES): COC(=O)[C@H]1[C@H]2C[C@@H]3c4[nH]c5cc(OC)ccc5c4CCN3C[C@H]2C[C@@H](OC(=O)/C=C/c2cc(OC)c(OC)c(OC)c2)[C@@H]1OC [RESCINNAMINE]
- AC50 [23]: 142 µM (active)
